# Source: article PMC6399515 (Insect Biochemistry and Molecular Biology, 2016)
# Tests used:
# CYP6M2 [1] = target: T1, CYP6M2 (Anopheles gambiae, UniProt Q7Q449)
# CYP6P3 [2] = target: T2, CYP6P3 (Anopheles gambiae, UniProt Q8T632)
# T2 sequence (Q8T632 1-509): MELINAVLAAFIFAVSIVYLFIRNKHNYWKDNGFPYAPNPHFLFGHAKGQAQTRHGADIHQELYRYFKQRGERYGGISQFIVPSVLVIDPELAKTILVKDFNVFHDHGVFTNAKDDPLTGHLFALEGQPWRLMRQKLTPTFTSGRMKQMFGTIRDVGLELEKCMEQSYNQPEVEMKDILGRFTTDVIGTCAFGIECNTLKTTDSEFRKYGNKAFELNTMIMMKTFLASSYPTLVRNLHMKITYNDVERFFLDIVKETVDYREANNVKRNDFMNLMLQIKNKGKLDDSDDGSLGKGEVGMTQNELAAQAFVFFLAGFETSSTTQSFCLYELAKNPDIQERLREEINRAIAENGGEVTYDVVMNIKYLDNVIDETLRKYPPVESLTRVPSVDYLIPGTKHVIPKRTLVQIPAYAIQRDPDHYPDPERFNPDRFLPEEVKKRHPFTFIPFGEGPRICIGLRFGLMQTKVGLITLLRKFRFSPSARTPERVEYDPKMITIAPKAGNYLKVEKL
# T2 sequence (Q86QH5 1-679 partner): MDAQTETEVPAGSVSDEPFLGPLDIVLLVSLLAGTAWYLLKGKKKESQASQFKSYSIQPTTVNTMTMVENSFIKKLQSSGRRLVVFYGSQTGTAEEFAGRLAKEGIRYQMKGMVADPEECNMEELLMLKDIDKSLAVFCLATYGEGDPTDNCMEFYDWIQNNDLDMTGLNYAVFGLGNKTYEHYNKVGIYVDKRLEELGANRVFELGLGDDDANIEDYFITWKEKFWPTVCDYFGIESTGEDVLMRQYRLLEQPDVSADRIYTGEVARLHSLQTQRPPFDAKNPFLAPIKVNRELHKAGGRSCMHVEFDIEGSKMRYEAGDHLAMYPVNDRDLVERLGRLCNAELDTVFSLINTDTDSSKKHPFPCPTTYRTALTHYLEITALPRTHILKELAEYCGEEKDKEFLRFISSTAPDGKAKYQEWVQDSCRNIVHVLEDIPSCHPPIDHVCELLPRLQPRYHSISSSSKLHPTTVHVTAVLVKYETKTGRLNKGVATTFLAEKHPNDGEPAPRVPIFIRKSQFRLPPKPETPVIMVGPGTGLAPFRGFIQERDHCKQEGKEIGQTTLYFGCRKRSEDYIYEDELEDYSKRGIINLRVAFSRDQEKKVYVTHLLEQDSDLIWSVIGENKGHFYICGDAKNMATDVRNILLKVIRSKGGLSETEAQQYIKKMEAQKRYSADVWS
# T2 sequence (Q86QH4 1-128 partner): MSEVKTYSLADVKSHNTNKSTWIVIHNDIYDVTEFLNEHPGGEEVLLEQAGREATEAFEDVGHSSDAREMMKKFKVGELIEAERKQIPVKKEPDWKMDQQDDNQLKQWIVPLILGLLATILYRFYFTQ
# CYP6P3 [3] = target: T2, CYP6P3; test: biochemical
# CYP6Z2 = target: T3, CYP6Z2 (Anopheles gambiae, UniProt A8I285); test: biochemical
# T3 sequence (A8I285 1-492): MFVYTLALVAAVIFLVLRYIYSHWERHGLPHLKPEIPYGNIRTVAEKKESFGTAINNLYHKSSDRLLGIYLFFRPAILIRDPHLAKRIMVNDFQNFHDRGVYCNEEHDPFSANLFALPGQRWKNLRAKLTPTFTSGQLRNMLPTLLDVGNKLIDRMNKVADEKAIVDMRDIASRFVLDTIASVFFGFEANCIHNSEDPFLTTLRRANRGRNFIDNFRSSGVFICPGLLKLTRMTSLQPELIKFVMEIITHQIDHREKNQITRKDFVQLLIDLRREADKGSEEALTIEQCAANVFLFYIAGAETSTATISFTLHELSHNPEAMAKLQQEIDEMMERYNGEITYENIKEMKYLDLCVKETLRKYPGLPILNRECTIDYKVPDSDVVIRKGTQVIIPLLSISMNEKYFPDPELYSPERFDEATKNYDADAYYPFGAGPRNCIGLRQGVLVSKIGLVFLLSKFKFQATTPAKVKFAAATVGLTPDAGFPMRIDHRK
# T3 sequence (Q86QH5 1-679 partner): T2 sequence (Q86QH5 1-679 partner)
# T3 sequence (Q86QH4 1-128 partner): T2 sequence (Q86QH4 1-128 partner)
# CYP6M2 [4] = target: T1, CYP6M2; test: biochemical
# CYP9J5 [5] = target: T4, CYP9J5 (Anopheles gambiae, UniProt Q5TN57)
# T4 sequence (Q5TN57 1-545): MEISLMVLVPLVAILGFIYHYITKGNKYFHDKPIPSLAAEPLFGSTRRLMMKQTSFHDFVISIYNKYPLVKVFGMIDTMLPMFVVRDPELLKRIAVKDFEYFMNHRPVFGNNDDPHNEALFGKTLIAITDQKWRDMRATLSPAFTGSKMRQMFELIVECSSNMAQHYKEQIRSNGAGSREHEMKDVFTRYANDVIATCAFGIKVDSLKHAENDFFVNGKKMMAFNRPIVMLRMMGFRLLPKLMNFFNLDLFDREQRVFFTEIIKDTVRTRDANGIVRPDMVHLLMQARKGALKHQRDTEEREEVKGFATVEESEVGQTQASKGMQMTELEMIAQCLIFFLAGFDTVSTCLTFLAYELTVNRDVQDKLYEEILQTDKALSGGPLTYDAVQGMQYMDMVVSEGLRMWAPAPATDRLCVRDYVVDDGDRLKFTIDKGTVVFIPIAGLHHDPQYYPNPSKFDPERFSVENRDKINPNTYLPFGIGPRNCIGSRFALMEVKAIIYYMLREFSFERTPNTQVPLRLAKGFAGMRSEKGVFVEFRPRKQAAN
# T4 sequence (Q86QH5 1-679 partner): T2 sequence (Q86QH5 1-679 partner)
# T4 sequence (Q86QH4 1-128 partner): T2 sequence (Q86QH4 1-128 partner)
# CYP9J5 [6] = target: T4, CYP9J5; test: biochemical
# [7] = category of inhibition of DEF metabolism
# T1 sequence (Q7Q449 1-499, one chain of several): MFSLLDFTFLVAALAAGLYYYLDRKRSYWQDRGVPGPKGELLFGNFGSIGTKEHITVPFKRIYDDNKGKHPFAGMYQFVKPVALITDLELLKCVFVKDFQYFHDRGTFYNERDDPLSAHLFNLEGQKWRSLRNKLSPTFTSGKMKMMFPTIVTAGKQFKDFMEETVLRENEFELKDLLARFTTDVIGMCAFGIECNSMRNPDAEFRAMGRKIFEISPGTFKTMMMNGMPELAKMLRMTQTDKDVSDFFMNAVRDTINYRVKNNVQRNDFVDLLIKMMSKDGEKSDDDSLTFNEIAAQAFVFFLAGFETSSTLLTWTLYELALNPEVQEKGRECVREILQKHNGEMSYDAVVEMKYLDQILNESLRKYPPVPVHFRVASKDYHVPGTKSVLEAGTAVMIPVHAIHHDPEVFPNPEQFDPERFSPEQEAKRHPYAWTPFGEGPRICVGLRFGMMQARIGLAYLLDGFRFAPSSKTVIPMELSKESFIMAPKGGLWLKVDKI
SMILES,"% PPF depletion + PBO (CYP6M2 [1]; Anopheles gambiae, pH 7.4) [%]","% PPF depletion −PBO (CYP6M2 [1]; Anopheles gambiae, pH 7.4) [%]","% PPF depletion + PBO (CYP6P3 [2]; Anopheles gambiae, pH 7.4) [%]",IC50 (CYP6P3 [3]) [µM],IC50 (CYP6Z2; IC50 of DEF metabolism) [µM],IC50 (CYP6Z2; [7]) [µM],IC50 (CYP6M2 [4]) [µM],"% PPF depletion + PBO (CYP9J5 [5]; Anopheles gambiae, pH 7.4) [%]",IC50 (CYP9J5 [6]) [µM],Inhibition ratio (%): reduction of PPF depletion caused by PBO (CYP6M2 [1]) [%],Inhibition ratio (%): reduction of PPF depletion caused by PBO (CYP6P3 [2]) [%],Inhibition ratio (%): reduction of PPF depletion caused by PBO (CYP9J5 [5]) [%]
"CC(COc1ccc(Oc2ccccc2)cc1)Oc1ccccn1 (centres unmarked) [PPF, pyriproxyfen]",1.44 ± 0.67,30.93 ± 4.65,8.68 ± 1.74,15.8,2.23,1 to 10,14.1,0.08 ± 0.15,19,,,
"CC1(C)C(C=C(Cl)Cl)C1C(=O)OCc1cccc(Oc2ccccc2)c1 (mixture of isomers) [Permethrin, 3-phenoxybenzyl (1R,S)-cis,trans-3-(2,2-dichlorovinyl)-2,2-dimethylcyclopropanecarboxylate]",,,,6.77,13.7,> 10,8.07,,6.47,,,
"CCCCOCCOCCOCc1cc2c(cc1CCC)OCO2 [PBO, piperonyl butoxide]",,,,,,,,,,95.3,91.3,99.6
